Source: article PMC5768343, “A natural inhibitor of kidney-type glutaminase: a withanolide from Physalis pubescens with potent anti-tumor activity” (Oncotarget, 2017)

Assays:
[1] = tested on: human fibrosarcoma cells (HT1080); assay: CCK8 cytotoxicity assay, HT1080; format: cell-based; details: HT-1080, CCK8, 48 h
Experimental: (§2) The SW1990, HT1080, and A375-S2 human tumor cell lines were obtained from ATCC (Manassas, VA, USA). […] SW1990, HT1080, and LO2 cells were cultured in DMEM medium with 10% fetal bovine serum (FBS). All of these cells were cultured at 37°C in a humidified atmosphere with 5% CO2. To estimate cell viability, cells (5000/well) were separately seeded in 96-well plates for 24 h at 37°C in a 5% CO2 incubator. […] All the experiments were performed in triplicate, and the mean absorbance values were calculated. The IC50 values of the compounds were derived from the mean OD values of the triplicate tests versus the drug concentration curves.

KGA (recombinant cKGA) = target: T1, KGA (recombinant cKGA) (Homo sapiens, UniProt O94925); assay: Microscale thermophoresis (MST) binding assay; details: labeled KGA 200 nM, 26°C
T1 construct: human KGA (cKGA) encoding amino acids 221–553 was cloned into pET26b vector; His tag (C); made in house; host or cells: E. coli BL21 (DE3)-RIL-Codon plus
T1 sequence (O94925 221-553): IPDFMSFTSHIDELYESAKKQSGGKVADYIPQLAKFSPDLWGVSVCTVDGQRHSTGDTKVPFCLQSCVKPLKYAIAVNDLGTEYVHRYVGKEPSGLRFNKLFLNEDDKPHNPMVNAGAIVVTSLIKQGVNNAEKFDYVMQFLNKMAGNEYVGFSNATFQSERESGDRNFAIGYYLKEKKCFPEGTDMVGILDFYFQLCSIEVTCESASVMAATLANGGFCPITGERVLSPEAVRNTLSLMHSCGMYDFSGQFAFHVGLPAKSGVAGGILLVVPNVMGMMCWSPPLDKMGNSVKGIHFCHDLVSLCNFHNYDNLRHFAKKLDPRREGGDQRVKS
From the text: Specific details were referenced to our previous work.

[2] = tested on: erlotinib-resistant human non-small cell lung cancer cells (HCC827-ER); assay: CCK8 cytotoxicity / proliferation assay, HCC827-ER; format: cell-based
Experimental: (§1) The experiment was performed in triplicate.

[3] = tested on: human pancreatic cancer cells (SW1990); assay: CCK8 cytotoxicity / proliferation assay, SW1990; details: for relative cell vitality: CCK8
Experimental: as §2
Cell proliferation was assessed by incubating them with Cell Counting Kit-8 reagents (Dojindo, Shanghai, China) for 24 h, 48 h, 72 h, 96 h at 37°C and measuring the absorbance at 450 nm. The experiment was performed in triplicate.

SW1990 cells [4] = assay: EdU and DAPI double staining proliferation assay, SW1990; format: cell-based, human; details: 5 μM
Experimental: The logarithmic growth phase cells were seeded in 24-well plates at 2 × 10^4 ∼ 5 × 10^5 cells per well. After 4–6 h, the medium was removed, the medium containing no or different concentrations of compound was replaced, and 50 μM of EdU was added. 2 h later, the medium was removed, cells washed by PBS. 200 μL of cell fixative (i.e., PBS containing 4% paraformaldehyde) was added and incubated at room temperature for 30 minutes. The solution was discarded and 200 μL of 2 mg/mL glycine was added to each well. After 5 minutes of incubation, the glycine solution was discarded. Each well washed with 200 μL of PBS, rinse for 5 minutes, and PBS was removed. Apollo staining was added to each well with 200 μL of 1 X Apollo® staining solution. After incubation for 30 minutes at room temperature and decolorization, the reaction solution was discarded. Similarly, 200 μL of 1 × Hoechst 33342 solution was added to each well to dye the total DNA. After 30 minutes of incubation at room temperature and the reaction solution was discarded, and then the images were captured and analyzed by fluorescence microscopy.

SW1990 cells [5] = assay: ROS quantification (DCFDA assay); format: cell-based, human; details: 2.5 or 5 μM, 24 h
Experimental: DCFDA assay was performed 24 h after interfered with difference concentration of physapubescin K or DMSO. Cells were incubated with 5 μM 2′,7′-dichlorodihydrofluorescein diacetate (DCFDA, KeyGen, Nanjing, China A124) for 30 min. Cells were washed twice with PBS to remove excess DCFDA, and the labeled cells were then collected in PBS. The fluorescent of 2′,7′-dichloro-fluorescein (DCF) was proportionate to ROS generation and was measured by microplate reader.

[6] = tested on: human normal liver cell LO2; assay: CCK8 cytotoxicity / proliferation assay, LO2; format: cell-based; details: CCK8, 48 h
Experimental: as §1

SW1990 cells [7] = assay: Flow cytometric analysis for apoptosis (Annexin V/PI); format: cell-based, human; details: SW1990, 24 h
Experimental: SW1990 cells were cultured in six-well plates and treated with different concentrations of physapubescin K for 24 h. Then the cells were harvested, washed twice with ice-cold PBS, and mixed in 100 μL of 1× binding buffer (10 mM HEPES/ NaOH, pH 7.4, 140 mM NaCl, 2.5 mM CaCl2). After incubating with Annexin-V and PI staining liquid (Nanjing KeyGen Biotech. Inc.) for 15 min at room temperature, the cells were examined by flow cytometry (BD Biosciences, FACSCalibur).

[8] = tested on: glutamine metabolism in T47D cells; assay: Intracellular metabolite levels, T47D; format: cell-based, human; details: 2.5 or 5 μM, 4 hours
Experimental: Blocking glutamine metabolism can inhibit the growth and proliferation of glutamine-dependent cells, mainly because of blocking the production and utilization of glutamine metabolites. The effects of different concentrations of physapubescin K on the intracellular glutamine and its downstream metabolites were examined. […] And the same effect could also be seen in Hcc827-ER cells (Figure 7C).
NADPH/NADP^+ ratio was determined by using NADP^+/NADPH Quantification Colorimetric Kit (BioVision, #K347-100). The abundance of intracellular glutamine (KeyGen, Nanjing, China A124), glutamate (KeyGen, Nanjing, China A074), (BioVision, #K778), aspartate (BioVision, #K552), oxaloacetate (BioVision, #K659) and malate (BioVision, #K637) was determined by using quantification kits, according the manufacturer’s instruction. Briefly, 5 × 10^6 cells (10-cm dishes) were collected during log-phase growth by cell scraper, homogenized in 0.2 mL of provided buffers (on ice), and centrifuged at 4°C for 10 min at 13,000 g. Supernatants were deproteinized using 10 K Ultrafiltration tube (Millipore, USA), analyzed and compared to standard curves. The signals obtained were normalized to the protein concentration calculated upon processing a parallel 10-cm dish.

SW1990 xenograft = SW1990 xenograft mouse model; format: in vivo; details: 5 mg/kg intraperitoneal injection daily, P < 0.01, dose-dependent
Experimental: All animal experiments were performed in accordance with the Guide for the Care and Use of Laboratory Animals of Tongji Medical College, Huazhong University of Science and Technology and approved by the Ethics Committee. CB-17/ SCID mice (male, 4 weeks old) were purchased from Beijing HFK Bioscience CO., LTD (Beijing, China). SW1990 cells were inoculated subcutaneously (3 × 10^6 cells) into the left flank of each mouse. Six days later, mice were randomly divided into […] and were injected i.p. daily for 16 days with one of the following treatments: (1) natural saline group (n = 10); (2) 5 mg/Kg physapubescin K (n = 10); (3) 10 mg/Kg physapubescin K (n = 10). The dose volume was 0.1 mL/10 g body weight, and the weights of mice were recorded every day. Meanwhile, the tumor volumes were measured with vernier calipers and calculated by the following formula: (A × B2)/2, where A was length and B was width of the two-dimension tumor. After animals were sacrificed, tumor weights were measured. The inhibition ratio (%) was calculated using the following equation: I% = 100% × [Wtumor (vehicle) − Wtumor (treated)]/Wtumor (vehicle)

For `CO[C@H]1O[C@@H]([C@@H](C)[C@H]2C[C@H](OC(C)=O)[C@H]3[C@@H]4C[C@H]5O[C@]56[C@@H](O)C=CC(=O)[C@]6(C)[C@H]4CC[C@@]32C)C[C@]2(C)O[C@]12C` [physapubescin K], the IC50 [1] was 2.85 ± 0.6 µM, the Kd (KGA (recombinant cKGA)) was 3.03 ± 0.38 µM and the “sensitivity of cell growth to treatment” value ([2]; HCC827-ER, 1 μM) was “sensitive”. The IC50 ([2]; Homo sapiens, HCC827ER, CCK8, 48 h) was 0.72 ± 0.22 µM, the IC50 ([3]; Homo sapiens, SW1990, 48 h, read-out: IC50 SW1990) was 2.21 ± 0.01 µM and the “sensitivity of cell growth to treatment” value ([3]; SW1990, 1 μM) was “sensitive”. It also gave a relative cell vitality ([3]; SW1990, 2 μM, 24 h) of 50.3%, a relative cell vitality ([3]; SW1990, 2 μM, 36 h) of 37.6% and a relative cell vitality ([3]; SW1990, 2 μM, 48 h) of 27.3%. For the same molecule, the cell proliferation ([3]; SW1990, 2 μM, alleviated by addition of 4 mM glutamate) was “significantly inhibited cell proliferation”, the proliferated cell ratio (SW1990 cells [4]) was “close to zero” and the “intracellular reactive oxygen species (ROS) levels” value (SW1990 cells [5]) was “significantly increase”. The IC50 [6] was 11.7 ± 0.32 µM, the apoptosis (SW1990 cells [7]) was “induce apoptosis” and the “effects on glutamine metabolism” value [8] was “moderate effects”. The “growth of the tumor” value (SW1990 xenograft) was “significantly inhibit the growth of the tumor”.
